In patent US11959079B2, “Methods for treating apolipoprotein E4-associated disorders” (priority 2009, dated 2024):
Entries after “also recorded” stand apart in the source; their conditions may differ.

Key:
Format in all cases: in vivo
female apoE4-KI mice [1] = assay: Morris water maze, spatial learning and memory, apoE4-KI mice
Protocol: (§1) Human apoE3-KI and apoE4-KI mice (Sullivan et al., 2004) were from Taconic. Tau−/− mice (Dawson et al., 2001) were backcrossed onto the mE−/− background, and mE−/−Tau−/− mice were crossed with apoE4(Δ272-299)mE−/− Tau+/+ mice. Studies were conducted on female mice at 1, 3, 6, 12, 16, or 21 months of age. All mice were on a C57BL/6 genetic background. Some apoE4-KI and apoE4(Δ272-299)mE−/−Tau+/+ mice received daily intraperitoneal injections of pentobarbital (20 mg/kg) or saline in their home cages for 21 days before the first day of Morris Water Maze (MWM) training and 1 h after daily training. Some apoE4(Δ272-299)mE−/−Tau−/− mice were given daily injections of picrotoxin (1 mg/kg) or saline intraperitoneally in their home cages for 3 days before MWM training and 30 min before daily training. Brain tissues were collected after a 1-min transcardial perfusion with 0.9% NaCl. One hemibrain from each mouse was fixed in 4% paraformaldehyde, sectioned (30 μm) with a microtome, and immunostained as described below. All experiments were performed in accordance with NIH and institutional guidelines.
(§2) The water maze pool (diameter, 122 cm) contained opaque water (22-23° C.) with a platform 10 cm in diameter. The platform was submerged 1.5 cm during hidden platform sessions (Harris et al., 2003; Raber et al., 1998; Roberson et al., 2007) and marked with black-and-white-striped mast (15 cm high) during cued training sessions. Mice were trained to locate the hidden platform (hidden days 1-5) and the cued platform (visible days 1-3) in two daily sessions (3.5 h apart), each consisting of two 60-s trials (hidden and cued training) with a 15-min intertrial interval. The platform location remained constant in the hidden platform sessions but was changed for each cued platform session. Entry points were changed semirandomly between trials. Twenty-four, 72, and 96 hours after the last hidden platform training, a 60-s probe trial (platform removed) was performed. Entry points for the probe trial were in the west quadrant, and the target quadrant was in the southeast quadrant. Performance was monitored with an EthoVision video-tracking system (Noldus Information Technology).

[2] = test system: apoE4(Δ272-299)mE−/−Tau+/+ mice; assay: Morris water maze, apoE4(Δ272-299)mE−/−Tau+/+ mice; settings: 12-month-old female mice, 20 mg/kg i.p., 21 days before and every day during MWM, vs saline
Protocol: as §1
The water maze pool (diameter, 122 cm) contained opaque water (22-23° C.) with a platform 10 cm in diameter. […] Performance was monitored with an EthoVision video-tracking system (Noldus Information Technology).

female apoE4-KI mice [3] = assay: Quantification of GAD67-positive hilar GABAergic interneurons, apoE4-KI mice; settings: 16-month-old female apoE4-KI mice; 20 mg/kg i.p.
Protocol: as §1, with “Brain tissues were collected after a 1-min transcardial perfusion with 0.9% NaCl. One hemibrain from each mouse was fixed in 4% paraformaldehyde, sectioned (30 μm) with a microtome, and immunostained as described below. All experiments were performed in accordance with NIH and institutional guidelines.” left out
(§3) Sliding microtome sections (30 μm) were immunostained with the following primary antibodies: polyclonal goat anti-human apoE (1:8000 for fluorescence; Calbiochem), rabbit anti-neuropeptide Y (1:8000 for […] (DAB); ImmunoStar), rat anti-somatostatin (1:100 for DAB; Chemicon), mouse anti-GAD67 (1:1000 for DAB; Chemicon), mouse anti-MAP2 (1:500 for fluorescence; Sigma), mouse anti-synaptophysin (1:500 for fluorescence; DakoCytomation), and phosphorylation-dependent monoclonal antibody AT8 (p-Ser202; 1:100 for DAB; Endogen). […]

wildtype mice = assay: Morris water maze, wildtype mice; settings: 12-month-old female wildtype mice, 1 mg/kg i.p., 3 days before and every day during MWM
Protocol: as §2

mE−/−Tau+/+ mice = assay: Morris water maze, mE−/−Tau+/+ mice; settings: 12-month-old female mE−/−Tau+/+ mice, 1 mg/kg i.p., 3 days before and every day during MWM
Protocol: as §2

[4] = test system: apoE4(Δ272-299)mE−/−Tau−/− mice; assay: Quantification of GAD67-positive hilar GABAergic interneurons, apoE4(Δ272-299)mE−/−Tau−/− mice; settings: 12-month-old female mice, 1 mg/kg i.p., 3 days before and every day during MWM
Protocol: as §1, with “Brain tissues were collected after a 1-min transcardial perfusion with 0.9% NaCl. One hemibrain from each mouse was fixed in 4% paraformaldehyde, sectioned (30 μm) with a microtome, and immunostained as described below. All experiments were performed in accordance with NIH and institutional guidelines.” left out
as §3

[5] = test system: apoE4(Δ272-299)mE−/−Tau−/− mice; assay: Morris water maze, apoE4(Δ272-299)mE−/−Tau−/− mice
Protocol: as §1
as §2, with “Entry points for the probe trial were in the west quadrant, and the target quadrant was in the southeast quadrant.” left out

Molecule	memory deficits in probe trial (target quadrant and target cross tests) (female apoE4-KI mice [1]; 16-month-old apoE4-KI mice, probe trial 96 h after last hidden session, 20 mg/kg i.p.)	learning and memory deficits (female apoE4-KI mice [1]; 16-month-old female apoE4-KI mice, 20 mg/kg i.p. daily, 21 days before and during MWM)	learning curve (escape latency, hidden platform days) (female apoE4-KI mice [1]; 16-month-old female apoE4-KI mice, 20 mg/kg i.p., 21 days before and daily during MWM, vs saline)	learning deficit / learning curve (hidden platform) (female apoE4-KI mice [1]; 21-month-old female apoE4-KI mice, 20 mg/kg, 21 days before and daily during MWM, vs saline, 20 mg/kg)	learning deficit (hidden platform sessions) [2]	number of hilar GABAergic interneurons (female apoE4-KI mice [3])	learning and memory performance (wildtype mice)	learning and memory performance (wildtype mice; listed as Picrotoxin)	learning and memory performance (mE−/−Tau+/+ mice)	learning and memory performance (mE−/−Tau+/+ mice; listed as Picrotoxin)	number of hilar GABAergic interneurons (GAD67-positive) [4]	learning curve (hidden platform) ([5]; 1 mg/kg i.p., 3 days before and daily during MWM, vs saline-treated controls)	target crossing test in probe trial ([5]; probe trial 24 h after last hidden session, 1 mg/kg i.p.)	rescue (prevention) of learning and memory deficits by tau removal ([5]; subthreshold dose 1 mg/kg i.p., 3 days before and daily during MWM)
CCCC(C)C1(CC)C(=O)NC(=O)NC1=O (centres unmarked) [pentobarbital]	rescued memory deficits	rescued the learning and memory deficits	differed from that of saline-treated apoE4-KI mice (p<0.05, repeated-measures ANOVA) but resembled that of untreated apoE3-KI mice	rescued; also recorded: differed from that of saline-treated apoE4-KI mice (p<0.05, repeated-measures ANOVA) but resembled that of saline-treated apoE3-KI mice	rescued the learning and memory deficits; also recorded: rescued the learning deficit; also recorded: learned better than saline-treated apoE4(Δ272-299)mE−/−Tau+/+ mice (p<0.01)	did not alter								
picrotoxin							does not alter the learning and memory performance	did not alter	does not alter the learning and memory performance	did not alter	unaltered; also recorded: does not alter	resembled that of saline-treated apoE4(Δ272-299)mE−/−Tau+/+ mice	performed significantly worse	abolished
